Measurements as given in patent US9522124B2, “Methods for treating Alzheimer's disease” (Wisconsin Alumni Research Foundation, priority 2011, dated 2016).
pIC50: −log10 of the molar value.

Tests used:
ATase1 = biological target: T1, ATase1 (Homo sapiens, UniProt Q9UHF3); assay: AcetylCoA:lysine acetyltransferase assay (fluorescent, affinity purified ATase1-myc); format: biochemical
T1 construct: myc (C); made in house
T1 sequence (Q9UHF3 1-227): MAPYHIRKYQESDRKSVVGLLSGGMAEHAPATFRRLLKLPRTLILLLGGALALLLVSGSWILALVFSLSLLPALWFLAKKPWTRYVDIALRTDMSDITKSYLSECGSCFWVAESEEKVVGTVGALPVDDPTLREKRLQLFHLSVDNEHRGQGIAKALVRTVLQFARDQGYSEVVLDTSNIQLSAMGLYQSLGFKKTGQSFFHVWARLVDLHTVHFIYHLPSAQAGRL
Experimental: (§1) The acetyl:CoA lysine acetyltransferase activity of ATase1 and ATase2 was assayed as described before (Ko and Puglielli, 2009). Briefly, we adapted a commercially available fluorescent kit (cat. no. 10006515, Cayman Chemicals) as follows: as source of the enzymatic activity, we used affinity purified ATase1-myc and ATase2-myc at the final concentration of 300 ng/μl; as donor of the acetyl group, we used acetyl-CoA at the final concentration of 12.5 μM. […] The acetyltransferase assay was performed as recommended by the manufacturer.
(§2) For kinetic analysis of ATase1 and ATase2 inhibition, the assays were performed in the presence of the indicated concentrations of compound 9, 19 and 9.I. The concentration of acetyl-CoA was varied from […]. Values were plotted as a Lineweaver-Burk plot using Graphpad Prism software.
(§3) We previously described a fluorescent assay that is able to assess the acetylCoA:lysine acetyltransferase activity of ATase1 and ATase2 in vitro (Ko and Puglielli, 2009). The assay employs affinity purified ATase1 or ATase2 (as enzymes), acetyl-CoA (as donor of the acetyl group) and a recombinant peptide corresponding to the N-terminal tail of the histone protein H3 (as acceptor of the acetyl group). The H3 peptide was preferred to affinity purified BACE1 because it is acetylated in a conformation independent manner ((Ko and Puglielli, 2009) and data not shown) and, therefore, more suitable for large screening approaches. To identify possible ATase1 and ATase2 inhibitors we used the assay to screen a single library of 14,400 small molecules/compounds. The screen identified 186 small molecules/compounds able to inhibit ATase1, ATase2 or both in vitro. […] Each compound was then screened for cytotoxic properties by using multi-plex cytotoxicity assays on a variety of cell lines, including human neuroblastoma and human neuroglioma. […] The above 30 compounds were individually screened on human neuroglioma (H4) cells for their ability to reduce the levels of BACE1 and the generation of Aβ. Two compounds, 9 and 19, produced significant changes and were object of further study.

ATase2 = biological target: T2, ATase2 (Homo sapiens, UniProt Q9UHE5); assay: AcetylCoA:lysine acetyltransferase assay (fluorescent, affinity purified ATase2-myc); format: biochemical
T2 construct: myc (C); made in house
T2 sequence (Q9UHE5 1-227): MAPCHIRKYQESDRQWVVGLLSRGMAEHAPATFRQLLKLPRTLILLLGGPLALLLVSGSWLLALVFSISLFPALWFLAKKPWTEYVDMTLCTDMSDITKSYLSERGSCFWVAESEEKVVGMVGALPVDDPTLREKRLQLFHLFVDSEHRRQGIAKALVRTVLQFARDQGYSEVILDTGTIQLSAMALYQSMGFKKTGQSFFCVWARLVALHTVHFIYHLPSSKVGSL
Experimental: as §1, §2, §3

BACE1 [1] = assay: Western blot assessment of BACE1 levels in H4 cell lysates; format: cell-based, human; settings: H4 cells, 48 hours
Experimental: (§4) Western blotting was performed on a 4-12% Bis-Tris SDS-PAGE system (NuPAGE; Invitrogen, Carlsbad, Calif., USA) as described previously (Costantini et al., 2006; Jonas et al., 2008; Jonas et al., 2010; Ko and Puglielli, 2007; Ko and Puglielli, 2009; Pehar et al., 2010). The following antibodies were used in this study: anti-acetylated lysine (monoclonal; cat. no. ab409; Abcam, Cambridge, Mass., USA); anti-BACE1 (polyclonal; cat. no. ab2077; Abcam); anti-Myc (monoclonal; cat. no. sc-40; santa cruz, Santa Cruz, Calif., USA); anti-ATases/NAT8 (polyclonal; cat. no. AP4957c; Abgent, San Diego, Calif., USA); anti-actin (monoclonal; cat. no. A1978; Sigma, St Louis, Mo., USA); anti-C99 (monoclonal; cat. no. M066-3; MBL, Woburn, Mass., USA); anti-acetylated H3 (polyclonal; cat. no. 06-599, Millipore, Billerica, Mass.); anti-acetylated H4 (polyclonal; cat. no. 06-866, Millipore, Billerica, Mass.); anti-αPCNA (polyclonal; cat. no. AP2835b, Abgent, San Diego, Calif., USA).
Samples were imaged with classical chemiluminescence and with the LiCor Odyssey Infrared Imaging System (LI-COR Biosciences, Lincoln, Nebr., USA). For chemiluminescent detection, HRP-conjugated anti-mouse or anti-rabbit secondary antibodies were used at 1:6000 dilution in 3% BSA/TBST (GE Healthcare). Detection was performed with either Lumiglo (KPL) or ECL Plus (GE Healthcare). For infrared imaging, goat anti-rabbit Alexa Fluor 680-conjugated secondary antibodies were used.
To assess their biological effects, we treated human neuroglioma (H4) cells with 10 μM of both compounds. […] This might reflect different kinetics of inhibition as well as different IC50s (see FIG. 2). Alternatively, it might also be explained by different cell-permeability properties. In fact, the cLog P for compound 9 and 19 is 5.03 and 3.19, respectively. The cLog P (or partition coefficient) is an indication of partition properties of a compound between hydrophobic and hydrophilic compartments. Higher values indicate preferential distribution in hydrophobic environments and, as such, increased permeability across biological membranes.

C99 = assay: Western blot assessment of C99 levels in H4 cell lysates; format: cell-based, human; settings: H4 cells, 48 hours
Experimental: FIG. 7. Compound 9 and 19 decrease levels and activity of BACE1. H4 cells were treated with either compound 9 or 19 for 48 hours prior to Western blot assessment of BACE1 and C99 levels in cell lysates. C99 is the immediate product of BACE1-mediated cleavage of APP.
as §4

BACE1 [2] = assay: Western blot of BACE1 in brain tissue homogenates of APP695/swe mice; format: in vivo, mouse; settings: 50 mg/kg/day in diet, 4 months
Experimental: FIG. 16. Compound 9 decreases levels of BACE1 in brain tissue homogenates of APP695/swe transgenic mice. Compound 9 was administered to select transgenic mice for four months, beginning at weaning, with additional transgenic mice used as controls. Brain tissue homogenates were obtained from sacrificed transgenic mice and Western blot assessment of BACE1 in brain tissue homogenates was performed.
A group of non-transgenic and APP695/swe mice were fed a diet containing 50 mg/kg/day of compound 9. Treatment started at weaning (˜6 weeks of age) and lasted 4 months. At the end of treatment, the animals were sacrificed and the electrophysiological properties of hippocampal brain slices (as induced by theta burst stimulation to the Schaffer collaterals) were studied.

[3] = Lineweaver-Burk plot, acetyl-CoA varied

Question: How did the pIC50 (ATase1) turn out when `O=c1c(Cl)c2oc3ccccc3nc-2c2ccccc12` [Compound 9] was run?
Answer: ~5.41

Question: And the “kinetics of inhibition for acetyl-CoA, ATase1” value (ATase1; [3])?
Answer: competitive inhibition

Question: What about the pIC50 (ATase2) of the same molecule?
Answer: ~6.10

Question: And the “kinetics of inhibition for acetyl-CoA, ATase2” value (ATase2; [3])?
Answer: non-competitive inhibition

Question: What about the “levels of BACE1” value (BACE1 [1]; 10 μM) of the same molecule?
Answer: significant reduction

Question: What about the “levels of BACE1 with increasing concentrations” value (BACE1 [1]; increasing concentrations) of the same molecule?
Answer: dose-dependent decrease

Question: And the “cellular levels of C99” value (C99)?
Answer: decreased cellular levels of C99

Question: What about the “BACE1 levels in brain homogenates” value (BACE1 [2]) of the same molecule?
Answer: marked reduction
